This passage reports RP-LC retention time results from the METLIN SMRT retention time set (Domingo-Almenara et al. 2019).

The nature of the data set: gradient 5% acetonitrile 3 min, to 50% in 2 min, to 85% in 15 min, held 3 min, 100 µL/min. Particulars: column: Zorbax Extend-C18 2.1 x 50 mm; eluents: water / acetonitrile, 0.1% formic acid. An outline of the steps: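 In both positive and negative ionization mode, a quadrupole time-of-flight mass spectrometer coupled to HPLC analyzed pure standards run in mixtures of ~100 molecules. The Zorbax Extend-C18 column (2.1 × 50 mm, 1.8 μm) was operated at 100 μL/min with water and acetonitrile, each containing 0.1% formic acid. The dead volume was 40 μL and the dwell volume 900 μL. Retention time came from adduct peaks that were computationally picked and individually inspected by hand.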
`CCCC(C)C(=O)NC1CCN(C2=NS(=O)(=O)C(c3ccc(C)c(C)c3)=C2C)CC1` (stereo not given): the RP-LC retention time stood at 927 s.

`Clc1ccc(C2Cn3nnc(-c4nc(-c5cccc(Cl)c5)no4)c3CO2)cc1` (stereo not given) displayed an RP-LC retention time of 1310 s.

The molecule `O=C(NCc1ccccc1)N1CCN(c2ccc(-c3cccs3)nn2)CC1` yielded an RP-LC retention time of 639 s.

`COc1ccc(CC(=O)NCC2(c3cccs3)CC2)cc1OC`: the RP-LC retention time is 736 s.

`Fc1ccc(Cc2nc3nccc(-c4ccsc4)n3n2)cc1` displayed an RP-LC retention time of 905 s.

The molecule `COc1ccc(OCc2nc(CCN(C)C(=O)CC3CCCC3)no2)cc1` gave an RP-LC retention time of 919 s.

With `Cc1ccc2nc(-c3cccc(F)c3)cc(C(N)=O)c2c1`, the RP-LC retention time came out at 880 s.

Molecule `Cc1ccc(NC(=O)N2c3ccccc3CC2c2nc(C3CC3)no2)c(C)c1` (stereo not given) came in with an RP-LC retention time of 1080 s.

In turn, `Cc1ccc(-n2ccc(=O)c(-c3nc(-c4ccc(F)c(Br)c4)no3)n2)cc1C` had an RP-LC retention time of 1120 s.

`Cc1cccc(OCCc2noc(C3CCN(S(=O)(=O)N(C)C)C3)n2)c1` (stereo not given): the RP-LC retention time stood at 978 s.

Take `COc1ncccc1C(=O)N1CCC(C(=O)Nc2nccs2)CC1`: the RP-LC retention time came out at 605 s.

For `CN1CCN(C(=O)C(=O)Nc2c3c(nn2-c2cccc(Cl)c2)CSC3)CC1`, the RP-LC retention time was 571 s.

`CCCS(=O)(=O)N1CCCC(Cc2noc(-c3cnccn3)n2)C1` (stereo not given) had an RP-LC retention time of 764 s.

In turn, `CCCCn1cc(S(=O)(=O)NCc2cccc(Cl)c2)c2cccnc21` came in with an RP-LC retention time of 1020 s.

The molecule `CC(C)NC(=O)N1CCC2(CC1)NCCc1c2[nH]c2ccccc12` registered an RP-LC retention time of 618 s.

In turn, `CCc1nc(-c2csc(S(=O)(=O)N3CCC(C(=O)Nc4ccc(F)cc4C)CC3)c2)no1` registered an RP-LC retention time of 963 s.

In the case of `COc1ccccc1-c1noc(C2CCCN2C(=O)Nc2ccc(F)cc2F)n1` (stereo not given), the RP-LC retention time worked out at 840 s.

`COc1ccc(-c2ccc3nc(N4CCC(C(=O)NC5CC5)CC4)sc3n2)cc1` had an RP-LC retention time of 746 s.

Molecule `Cc1ccc(NC(=O)CN2C(=O)NC3(CCCCC3)C2=O)cc1C` returned an RP-LC retention time of 792 s.

Turning to `CC(C)Cn1c(-c2cccc(C(=O)NCC3CCCO3)c2)nc2cccnc21` (stereo not given), the RP-LC retention time was found to be 699 s.

`Cn1nnnc1SCCNCc1ccc2c(c1)OCCO2` registered an RP-LC retention time of 577 s.

In the case of `COc1ccc(Cc2nnc(N)o2)cc1`, the RP-LC retention time came to 596 s.

`Cc1cccc(C)c1Nc1c(-c2ccc(N(C)C)cc2)nc2ncccn12` returned an RP-LC retention time of 747 s.

For `CCOc1ccc(-c2nc(-c3cccc(-c4ccnn4CC)c3)no2)cc1`, the RP-LC retention time was 1300 s.

Take `CC(C)Cn1cc(S(=O)(=O)Nc2cccc(Cl)c2)c2cccnc21`: the RP-LC retention time turned out to be 912 s.

For `O=C(c1nnc(-c2ccc(S(=O)(=O)N3CCCC3)cc2)o1)N1CCOCC1`, the RP-LC retention time turned out to be 739 s.

As to `CCc1cccc(NC(=O)C2CC(=O)N(c3ccc4c(c3)CCN4C(C)=O)C2)c1` (stereo not given), the RP-LC retention time stood at 707 s.

`COCCn1cc2c3c(cccc31)CN(C(=O)Nc1ccccc1C(F)(F)F)CC2` registered an RP-LC retention time of 981 s.

For `CC(C)C(NC(=O)c1ccco1)C(=O)NCc1nn(C)c2ccccc12` (stereo not given), the RP-LC retention time amounted to 677 s.

`Cc1ccc(-c2nc(-c3ccnc(N4CCOCC4)c3)no2)cc1F`: the RP-LC retention time came to 1100 s.

Turning to `CCCN(Cc1ccc(OC)cc1)Cc1cc(=O)n2cccc(C)c2n1`, the RP-LC retention time amounted to 644 s.

As for `CCOC(=O)c1nc(N(CC)c2ccccc2)c2ccccc2n1`, the RP-LC retention time is 769 s.

`O=C(Nc1ccc(N2CCOCC2)cc1)C1CCN(c2cncnc2N2CCCC2)CC1` registered an RP-LC retention time of 602 s.

Take `O=C(c1ccc(Cl)cc1Cl)N1CC(c2nc(C3CC3)no2)C1`: the RP-LC retention time worked out at 818 s.

With `Cc1ccc(NC(=O)CN2C(=O)CCc3cc(S(=O)(=O)N4CCCCC4C)ccc32)cc1N(C)C` (stereo not given), the RP-LC retention time worked out at 676 s.

On to `Cn1cc(-c2nc(C(=O)Nc3cccc(Cl)c3)cs2)c2cccnc21`, for which the RP-LC retention time came to 1110 s.

The molecule `O=C(NCc1ccccn1)c1c[nH]c2ncccc12` gave an RP-LC retention time of 549 s.

`CC(=O)N1CCC2(CC1)CC(CCO)CCO2` (stereo not given) returned an RP-LC retention time of 575 s.

In the case of `CN(C)C(=O)c1csc(S(=O)(=O)N2CCC(C(=O)Nc3ccccc3)CC2)c1`, the RP-LC retention time came to 752 s.

On to `O=C(NCc1ccccc1)C1CCN(S(=O)(=O)c2cc(C(=O)N3CCOCC3)cs2)CC1`, for which the RP-LC retention time turned out to be 694 s.

`O=S(=O)(NCCc1ccccn1)c1ccc2ccccc2c1` came in with an RP-LC retention time of 574 s.

For `CCc1nnc(-c2cc(C)n(CC(=O)Nc3cc(C)cc(C)c3)c2C)o1`, the RP-LC retention time is 887 s.

The molecule `Cc1ccc(C2=NC3(CCN(C(=O)c4ccc5[nH]ccc5c4)CC3)ON2)cc1` displayed an RP-LC retention time of 790 s.

Molecule `CCN1C(=O)c2cccnc2Sc2cc(CNC(=O)c3ccc(OC)cc3OC)ccc21` displayed an RP-LC retention time of 784 s.

Take `Cc1c2cnn(-c3ccccc3)c(=O)c2c(C)n1CCCC(=O)NCC1CCCO1` (stereo not given): the RP-LC retention time amounted to 687 s.

In turn, `Cc1ccc(Nc2c(-c3ccc(N(C)C)cc3)nc3cnccn23)c(C)c1` registered an RP-LC retention time of 962 s.

In turn, `O=C(CN1C(=O)CCCc2cc(S(=O)(=O)N3CCOCC3)ccc21)N1CCc2ccccc2C1` had an RP-LC retention time of 786 s.

`O=C1COc2ccccc2N1Cc1nc(-c2ccc(Br)cc2)no1` showed an RP-LC retention time of 1110 s.

Turning to `Cc1ccc(-c2noc(CSc3nccn3-c3ccccc3)n2)cc1`, the RP-LC retention time came to 938 s.

As for `Cc1ccc(-c2noc(Cc3nnc(-c4ccc(C)c(F)c4)o3)n2)cc1C`, the RP-LC retention time is 1210 s.

Consider `O=C(O)CSc1nnc(Br)n1-c1ccc(C2CC2)c2ccccc12`, for which the RP-LC retention time is 949 s.

`CCOCCn1c(=O)c2c(nc3n2CCCCN3c2ccc(OCC)cc2)n(C)c1=O` gave an RP-LC retention time of 906 s.

As to `COc1ccc(S(=O)(=O)N2CCCC(C(=O)N3CCCC3)C2)cc1C` (stereo not given), the RP-LC retention time amounted to 806 s.

Turning to `Cc1ccc(Cl)cc1NC(=O)Nc1cccc(-c2ccc(N3CCOCC3)nn2)c1`, the RP-LC retention time stood at 753 s.

With `COc1ccc(-n2ccc(=O)c(-c3nc(-c4ccc(Cl)c(F)c4)no3)n2)cc1`, the RP-LC retention time was 993 s.

The molecule `COc1ccc(C(=S)N2CCN(c3ccccc3C)CC2)cc1` gave an RP-LC retention time of 1260 s.

For `CCOc1ccc2nc(Nc3nc(C)c4c(n3)CCCC4)nc(C)c2c1`, the RP-LC retention time was found to be 573 s.

The molecule `Cc1ccc(-n2c(=O)c3c(cc(C)n3C)n(CC(=O)Nc3cc(C)ccc3C)c2=O)cc1` had an RP-LC retention time of 906 s.

`Cc1nc(-c2csc(S(=O)(=O)N3CCCC(C(=O)Nc4cccc(C#N)c4)C3)c2)no1` (stereo not given) had an RP-LC retention time of 930 s.

`Clc1ccc(-c2noc(Cc3nnc(-c4cccc(Br)c4)o3)n2)cc1` gave an RP-LC retention time of 1210 s.

Consider `COc1ccc(N2CCN(c3ncc(S(=O)(=O)c4ccc(C(C)C)cc4)c(N)n3)CC2)cc1`, for which the RP-LC retention time amounted to 1070 s.

Take `Cc1ccc(NC(=O)c2[nH]c3cc(C)sc3c2CN2CCOCC2)c(F)c1`: the RP-LC retention time was 728 s.

For `COc1ccc(CC(=O)N2CCC3(C2)C(=O)Nc2ccccc23)cc1Cl` (stereo not given), the RP-LC retention time amounted to 761 s.

`COc1cccc(N2CC(C(=O)Nc3nnc4n3CCS4)CC2=O)c1` (stereo not given) came in with an RP-LC retention time of 586 s.

Take `COC(=O)C1CCN(c2ccnc3c2c(=O)n(C)c(=O)n3C)CC1`: the RP-LC retention time was found to be 660 s.

The molecule `CCCOc1ccc(CNC(=O)C2CCN(c3cc(Oc4ccccc4)ncn3)CC2)cc1` yielded an RP-LC retention time of 988 s.

`Cn1cccc1C(=O)N1CCC2(CC1)NC(=O)N(Cc1ccccc1Cl)C2=O` came in with an RP-LC retention time of 790 s.

`CCOc1ccc(NC(=O)C2CCCN(S(=O)(=O)c3cc(-c4noc(C)n4)cs3)C2)cc1` (stereo not given) registered an RP-LC retention time of 982 s.

Molecule `CCOc1ccc(-c2nc(-c3cccc(-c4ccnn4C)c3)no2)cc1OCC` yielded an RP-LC retention time of 1210 s.

Turning to `Cc1sc(NC(=O)Cc2ccccc2)nc1-c1ccc2c(c1)N(C)C(=O)CO2`, the RP-LC retention time was found to be 926 s.

Consider `O=C(Cn1c(=O)c(=O)n(Cc2ccccc2)c2ncccc21)NCc1ccccn1`, for which the RP-LC retention time came out at 643 s.

`O=c1c(NCCc2ccc(Cl)cc2)nccn1-c1ccc2c(c1)OCO2` came in with an RP-LC retention time of 870 s.

`COc1ccc2c(c1)C1(CCN(C(=O)c3ccccc3C(F)(F)F)C1)C(=O)N2` (stereo not given) had an RP-LC retention time of 714 s.

As for `Cc1nn(C(C)C(=O)NC2CCCCC2)c(=O)c2nn(-c3ccccc3)c(C)c12` (stereo not given), the RP-LC retention time turned out to be 879 s.

For `O=C(CCCn1c(=O)c2cccn2c2ccc(F)cc21)NCCc1c[nH]c2ccccc12`, the RP-LC retention time turned out to be 858 s.

Molecule `CN(CC1(C)CCOCC1)C(=O)c1ccc(C#N)cc1` had an RP-LC retention time of 716 s.

On to `O=C(NCc1cc(F)ccc1F)C1CCN(C(=O)c2ncn3c2COC(c2ccc(F)cc2)C3)CC1` (stereo not given), for which the RP-LC retention time amounted to 802 s.

`CCCCc1ccc(NC(=O)Cn2cnc3c(sc4nc(-c5ccccc5)ccc43)c2=O)cc1` showed an RP-LC retention time of 1260 s.

In turn, `CC(C)c1csc(-c2csc(S(=O)(=O)Nc3ccc(F)c(F)c3)c2)n1` showed an RP-LC retention time of 1120 s.

Molecule `COCCN1CCC(N2CCN(S(=O)(=O)c3cccc(Br)c3)CC2)C1=O` (stereo not given) returned an RP-LC retention time of 612 s.
